Measured values taken from ChEMBL document CHEMBL3112512, “Microwave induced three-component synthesis and antimycobacterial activity of benzopyrazolo[3,4-b]quinolindiones” (2014).
≈ marks a conversion by molar mass, not a printed value.

Experiments:
Format in all cases: functional
[1] = tested on: Mycolicibacterium fortuitum; test: Antimycobacterial activity against Mycobacterium fortuitum MNT1073 clinical isolate by MTT assay
[2] = tested on: Mycobacteroides chelonae; test: Antimycobacterial activity against Mycobacterium chelonae MNT1407 clinical isolate by MTT assay
[3] = tested on: Mycobacterium scrofulaceum; test: Antimycobacterial activity against Mycobacterium scrofulaceum MNT1193 clinical isolate by MTT assay
[4] = tested on: Mycobacterium intracellulare; test: Antimycobacterial activity against Mycobacterium intracellulare MNT1408 clinical isolate by MTT assay
[5] = tested on: Mycobacterium szulgai; test: Antimycobacterial activity against Mycobacterium szulgai MNT1100 clinical isolate by MTT assay
[6] = tested on: Mycobacterium tuberculosis; test: Antimycobacterial activity against streptomycin, isoniazid, rifampicin, ethambutol and pirazynamide-susceptible Mycobacterium tuberculosis H37Rv ATCC 27294 by MTT assay

| SMILES | MIC [1] | MIC [2] | MIC [3] | MIC [4] | MIC [5] | MIC [6] |
| --- | --- | --- | --- | --- | --- | --- |
| Cc1nn(-c2ccccc2)c2nc3c(c(-c4ccccc4)c12)C(=O)C(=O)c1ccccc1-3 | > 32 µg/mL | > 32 µg/mL | > 32 µg/mL | > 32 µg/mL | > 32 µg/mL | ≤ 2 µg/mL |
| Cc1ccc(-c2c3c(nc4c2c(C)nn4-c2ccccc2)-c2ccccc2C(=O)C3=O)cc1 | > 32 µg/mL | > 32 µg/mL | > 32 µg/mL | > 32 µg/mL | > 32 µg/mL | 4 µg/mL (≈ 9.31 µM) |
| COc1cc(-c2c3c(nc4c2c(C)nn4-c2ccccc2)-c2ccccc2C(=O)C3=O)cc(OC)c1OC | > 32 µg/mL | > 32 µg/mL | > 32 µg/mL | > 32 µg/mL | > 32 µg/mL | > 32 µg/mL |
| Cc1nn(-c2ccccc2)c2nc3c(c(-c4ccc(Cl)cc4)c12)C(=O)C(=O)c1ccccc1-3 | > 32 µg/mL | > 32 µg/mL | > 32 µg/mL | > 32 µg/mL | > 32 µg/mL | > 32 µg/mL |
| Cc1nn(-c2ccccc2)c2nc3c(c(-c4ccc(F)cc4)c12)C(=O)C(=O)c1ccccc1-3 | > 32 µg/mL | > 32 µg/mL | > 32 µg/mL | > 32 µg/mL | > 32 µg/mL | 4 µg/mL (≈ 9.23 µM) |
| O=C1C(=O)c2ccccc2C2=C1C(c1ccccc1)c1c(-c3ccccc3)n[nH]c1N2 (stereo not given) | > 32 µg/mL | > 32 µg/mL | > 32 µg/mL | > 32 µg/mL | > 32 µg/mL | > 32 µg/mL |
| Cc1ccc(C2C3=C(Nc4[nH]nc(-c5ccccc5)c42)c2ccccc2C(=O)C3=O)cc1 (stereo not given) | > 32 µg/mL | > 32 µg/mL | > 32 µg/mL | > 32 µg/mL | > 32 µg/mL | > 32 µg/mL |
| COc1ccc(C2C3=C(Nc4[nH]nc(-c5ccccc5)c42)c2ccccc2C(=O)C3=O)cc1 (stereo not given) | > 32 µg/mL | > 32 µg/mL | > 32 µg/mL | > 32 µg/mL | > 32 µg/mL | > 32 µg/mL |
| Cc1ccc(-c2n[nH]c3c2C(c2ccccc2)C2=C(N3)c3ccccc3C(=O)C2=O)cc1 (stereo not given) | > 32 µg/mL | > 32 µg/mL | > 32 µg/mL | > 32 µg/mL | > 32 µg/mL | 16 µg/mL (≈ 38.3 µM) |
| O=C1C(=O)c2ccccc2C2=C1C(c1ccccc1)c1c(-c3ccc(Cl)cc3)n[nH]c1N2 (stereo not given) | > 32 µg/mL | > 32 µg/mL | > 32 µg/mL | > 32 µg/mL | > 32 µg/mL | > 32 µg/mL |
| O=C1C(=O)c2ccccc2C2=C1C(c1ccccc1)c1c(-c3ccc([N+](=O)[O-])cc3)n[nH]c1N2 (stereo not given) | > 32 µg/mL | > 32 µg/mL | > 32 µg/mL | > 32 µg/mL | > 32 µg/mL | 32 µg/mL (≈ 71.4 µM) |
| Cc1ccc(-c2n[nH]c3nc4c(c(-c5ccc([N+](=O)[O-])cc5)c23)C(=O)C(=O)c2ccccc2-4)cc1 | > 32 µg/mL | > 32 µg/mL | > 32 µg/mL | > 32 µg/mL | > 32 µg/mL | > 32 µg/mL |
| COc1ccc(-c2c3c(nc4[nH]nc(-c5ccc(Cl)cc5)c24)-c2ccccc2C(=O)C3=O)cc1 | > 32 µg/mL | > 32 µg/mL | > 32 µg/mL | > 32 µg/mL | > 32 µg/mL | > 32 µg/mL |
| NNC(=O)c1ccncc1 [ISONIAZID] | > 0.5 µg/mL | > 0.5 µg/mL | > 0.5 µg/mL | > 0.5 µg/mL | > 0.5 µg/mL | 0.25 µg/mL (≈ 1.82 µM) |
| CO[C@H]1/C=C/O[C@@]2(C)Oc3c(C)c(O)c4c(O)c(c(/C=N/N5CCN(C)CC5)c(O)c4c3C2=O)NC(=O)/C(C)=C\C=C\[C@H](C)[C@H](O)[C@@H](C)[C@@H](O)[C@@H](C)[C@H](OC(C)=O)[C@@H]1C [RIFAMPIN] | > 0.5 µg/mL | 0.125 µg/mL (≈ 0.152 µM) | > 0.5 µg/mL | > 0.5 µg/mL | > 0.5 µg/mL | 0.125 µg/mL (≈ 0.152 µM) |
